Test results: PubChem BioAssay (NCI)
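Where inhibition never reached the appropriate level, the endpoint shown equals the highest concentration tested. Otherwise, values were interpolated linearly from a five-concentration, 48-hour dose response in 96-well plates. TGI denotes the concentration required for complete inhibition of growth.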

Columns and labels:
Test in all cases: growth of human tumour cells (NCI), 48 h
[1] = test system: RXF 393 renal
[2] = test system: HT29 colon
[3] = test system: OVCAR-4 ovarian
[4] = test system: HL-60(TB) leukemia
[5] = test system: SK-OV-3 ovarian
[6] = test system: M14 melanoma
[7] = test system: NCI-H23 lung
[8] = test system: 786-0 renal
[9] = test system: PC-3 prostate
[10] = test system: MDA-N

SMILES | TGI [1] | TGI [2] | TGI [3] | TGI [4] | TGI [5] | TGI [6] | TGI [7] | TGI [8] | TGI [9] | TGI [10]
CS(=O)(=O)CSCSSCS(C)(=O)=O | 36.1 µM | > 100 µM | > 100 µM | 55.7 µM | > 100 µM | 40.8 µM | > 95.9 µM | 41.3 µM |  | 
Cc1cc(C)nc(NS(=O)(=O)c2ccc(Nc3c4ccccc4nc4c(C(=O)N5CCN(CCOS(C)(=O)=O)CC5)cccc34)cc2)n1 | > 100 µM | > 100 µM | > 100 µM | > 100 µM | > 100 µM | > 100 µM | > 100 µM |  |  | 
CCOC(=O)C1(C#N)C(c2ccccc2)CC(O)(c2ccc(Cl)cc2)C(C(=O)c2ccc(Cl)cc2)C1c1ccccc1 (stereo not drawn) | > 100 µM | > 100 µM | > 100 µM | > 100 µM | > 100 µM | > 100 µM | > 100 µM | > 100 µM |  | 
O=C(N/N=C(/CCN1CCCC1)CC(c1ccccc1)c1c(O)c2ccccc2oc1=O)c1ccncc1 (stereo not drawn) | > 100 µM | > 100 µM | > 100 µM | 84.8 µM | > 100 µM | > 100 µM | > 100 µM | > 100 µM |  | 
CC(C)N1CC2CC(CN(C(=O)c3ccccc3)C2)C1 | > 100 µM | > 100 µM | > 100 µM | > 100 µM | > 100 µM | > 100 µM | > 100 µM | > 100 µM |  | 
COC(=O)C1=C(C(=O)OC)SC(=CC#CC=C2SC(C(=O)OC)=C(C(=O)OC)S2)S1 |  | > 100 µM | 35.3 µM | > 100 µM | 31.5 µM | > 76.2 µM | 17.8 µM | 18.2 µM |  | 
CS(=O)(=O)Nc1ccc2c(c1)N(S(C)(=O)=O)CC2CCl (stereo not drawn) | > 100 µM | > 100 µM | > 100 µM | > 100 µM |  |  | > 100 µM | > 100 µM | > 100 µM | 
O=C1C=CC=C/C1=C1\N=C(c2ccccc2OCC(=O)c2ccccc2)SS1 | > 100 µM | > 100 µM | > 100 µM | > 100 µM | > 100 µM | > 100 µM | > 100 µM | > 100 µM |  | > 100 µM
Cc1ccc2c(c1)-c1c(C#N)c(N)nc(-c3ccc(Cl)cc3)c1CCS2(=O)=O |  | > 100 µM | > 100 µM |  | > 100 µM | > 100 µM | > 100 µM | > 100 µM | > 100 µM | 8.88 µM
Cc1cc(C)c2c(=O)cc(-c3cccc(F)c3)[nH]c2n1 |  | 1.8 µM | > 100 µM | 0.226 µM | > 100 µM | > 100 µM | 11.2 µM | > 64.2 µM | > 49.1 µM | 
COc1cccc2c1C(=O)c1c(O)c3c(c(O)c1C2=O)C[C@H](O)C[C@@H]3OC1CC(N)C(O)C(C)O1 (stereo partly drawn) | 25 µM | 14.1 µM | 21.4 µM |  | 14.8 µM |  | 3.18 µM | 14.2 µM | 12 µM | 
COC(=O)[C@@H]1CCCCC[C@H]2C(CO)=C(C)C(=O)C12 (stereo partly drawn) | > 100 µM | > 100 µM | > 100 µM | > 100 µM | > 100 µM | > 100 µM | > 100 µM | > 100 µM |  | 
CCCCOc1ccc(OCCCCCCCCCC[N+](C)(C)C)cc1 | 3.34 µM | 2.46 µM | 14.8 µM | 1.49 µM | 10.8 µM |  | 11 µM |  |  | 
C=C1N(C=O)C(C)(C)N(O)C1(C)C | > 100 µM | > 100 µM | > 100 µM |  | > 100 µM | > 100 µM | > 100 µM | > 100 µM | > 100 µM | 
COc1ccc(/C=c2\s/c(=C3/SC(=S)N(c4ccccc4)C3=O)n(-c3ccccc3)c2=O)cc1 |  | > 100 µM | > 100 µM | > 100 µM | 45 µM | > 100 µM | > 100 µM | > 100 µM | > 100 µM | > 100 µM
NCCCCNCCCNC(=O)c1nc(-c2nc(CCN)sc2Cl)sc1Cl | 37.1 µM | > 100 µM | 71.8 µM | > 100 µM | > 100 µM | > 100 µM | > 100 µM |  |  | 
CO[C@H]1SC[C@H](OC(C)=O)[C@H](OC(C)=O)[C@H]1OC(C)=O |  | > 100 µM | > 100 µM | > 100 µM |  | > 100 µM | > 100 µM | > 100 µM |  | > 100 µM
COc1ccc(OC2OC(CO)C(OCc3ccccc3)C(OCc3ccccc3)C2OCc2ccccc2)cc1 (stereo not drawn) |  | > 100 µM |  | > 100 µM | > 100 µM | > 100 µM | > 100 µM | > 100 µM | > 100 µM | > 100 µM
